Assay results as given in patent publication US20070197557A1, “Fungicidal mixtures” (Basf Aktiengesellschaft, priority 2004, published 2007).

Tested on: Erysiphe [syn. Blumeria] graminis forma specialis. tritici
Assay: activity against mildew of wheat, 5 day protective application
Format: in vivo
Conditions: evaluated 7 days after inoculation, Abbot's formula
Experimental: 1% by weight of the emulsifier Uniperol® EL (wetting agent having emulsifying and dispersant action based on ethoxylated alkylphenols) was added to this solution, and the mixture was diluted with water to the desired concentration.
Use example—activity against mildew of wheat caused by Erysiphe [syn. Blumeria] graminis forma specialis. tritici, 5 day protective application
Theor emulsion had been prepared as described above. […] The test plants were then placed in a greenhouse at temperatures between 20 and 24° C. and at 60 to 90% relative atmospheric humidity. After 7 days, the extent of mildew development was determined visually in % infection of the total leaf area
The visually determined percentages of infected leaf areas were converted into efficacies in % of the untreated control:
The efficacy (E) is calculated as follows using Abbot's formula: E=(1-α/β)·100 • α corresponds to the fungal infection of the treated plants in % and • β corresponds to the fungal infection of the untreated (control) plants in %
An efficacy of 0 means that the infection level of the treated plants corresponds to that of the untreated control plants; an efficacy of 100 means that the treated plants were not infected.

[1] = 12.5 ppm active compound in the spray liquor

SMILES | Efficacy in % of the untreated control [1] [%] | Efficacy in % of the untreated control (50 ppm active compound in the spray liquor) [%] | Efficacy in % of the untreated control (25 ppm active compound in the spray liquor) [%]
CC1CCN(c2c(-c3c(F)cc(F)cc3F)c(Cl)nc3ncnn23)CC1 [I, 5-chloro-7-(4-methylpiperidin-1-yl)-6-(2,4,6-trifluorophenyl)-[1,2,4]triazolo[1,5-a]pyrimidine] | 9 | 35 | 
CCCOc1nc2ccc(I)cc2c(=O)n1CCC [II.1-1, proquinazid] | 67 |  | 80
